Columns and labels:
Type in all cases: biochemical
[1] = biological target: T1, Human recombinant MMP-9 (Homo sapiens, UniProt P14780); assay: In vitro MMP inhibition analysis (fluorogenic peptide substrate), MMP-9; conditions: human recombinant enzyme; 4 μM substrate (A); apparent Ki without substrate correction
T1 construct: made in house; host or cells: MMP-9-transfected HT1080 cells (spent media)
Description: (§1) Several compounds and salts were analyzed in an in vitro assay to determine their ability to inhibit the MMP cleavage of peptide substrates. Inhibition constant (Ki) were calculated from the assayed compound-MMP interactions.
(§2) Human recombinant MMP-1, MMP-2, MMP-9, MMP-13, and MMP-14 were used in this assay. All enzymes were prepared in Assignee's laboratories following usual laboratory procedures. Protocols for the preparation and use of these enzymes are available in the scientific literature. See, e.g., Enzyme Nomenclature (Academic Press, San Diego, Calif., 1992) (and the citations therein). See also, Freije et al., J. Biol. Chem., 269(24), 16766-16773 (1994).
The MMP-9 proenzyme was purified by gelatin Sepharose chromatography from spent media of MMP-9-transfected HT1080 cells provided by Dr. Howard Welgus of Washington University (St. Louis, Mo.).
(§3) All MMPs were activated using 4-aminophenylmercuric acetate (“APMA”, Sigma Chemical, St. Louis, Mo.) or trypsin. MMP-9 also was activated using human recombinant MMP-3 (purified in Assignee's laboratory following standard cloning and purification techniques).
(§4) The following fluorogenic, methoxycoumarin-containing polypeptide substrate (A) was used in the MMP inhibition assays:
(§5) MCA-ArgProLeuGlyLeuDpaAlaArgGluArgNH2 (A)
(§6) “MCA” is 7-methoxycoumarin-4-yl acetyl. Substrate (A) was prepared Assignee's laboratory. In the absence of MMP inhibitory activity, the substrate is cleaved at the Gly-Leu peptide bond. This cleavage separates the highly fluorogenic peptide from the 2,4-dinitrophenyl quencher, thus resulting in increase of fluorescent intensity.
(§7) The stock solutions of the assayed compounds and salts were prepared in 1% dimethyl sulfoxide (DMSO). These stock solutions were diluted in Buffer A (100 mM Tris-HCl, 100 mM NaCl, 10 mM CaCl2, 0.05% polyoxyethylene 23 lauryl ether, pH 7.5) to obtain solutions with different compound concentrations, i.e., assay solutions with different concentrations of the assayed MMP inhibitory compound. The experiment controls contained the same amount of Buffer A/DMSO as the assayed sample, but contained none of the tested compound or salt.
(§8) The assays from which the Ki determinations were made were performed as follows. The assayed compound samples were incubated in separate wells of untreated white polystyrene plates (Nunc Nalgene International, Rochester, N.Y.), and analyzed on a Tecan SpectraFlour Plus plate reader. The excitation wavelength was 330 nm, and the emission wavelength -420 nm. All samples (assayed compounds and controls) were incubated in separate plate wells at room temperature for 1 hr in the presence of 4 μM of MMP substrate (A). In the absence of MMP inhibitory activity, substrate (A) was cleaved at the Gly-Leu bond resulting in an increase of relative fluorescence. Inhibition was observed as a reduced rate of this increase in relative fluorescence. […] This protocol is a modification of method by Knight et al., FEBS Lett., 296(3), 263-266 (1992). Apparent inhibitory constants were determined by non-linear regression of reaction velocity as a function of inhibitor and enzyme concentration using Morrison's equation, as described by Kuzmic, P., et al., Anal. Biochem., 286(1):45-50 (2000). Modifications were made in the non-linear regression method to allow a common control reaction rate and effective enzyme concentration to be shared between all dose-response relationships on a given assay plate. Since the substrate concentration was chosen to be at or below the Km, the apparent Ki's from this analysis were reported as Ki's without correction for the influence of substrate.
(§9) The above protocols were used to determine MMP inhibition Ki constants for the compounds in Examples 1, 2, and 4-42 above. All Ki values in Table 3 are given in nM units.

[2] = biological target: T2, Human recombinant MMP-13 (Homo sapiens, UniProt P45452); assay: In vitro MMP inhibition analysis (fluorogenic peptide substrate), MMP-13; conditions: human recombinant enzyme; 4 μM substrate (A); apparent Ki without substrate correction
T2 construct: made in house; host or cells: baculovirus / insect cells
Description: as §1, §2
The MMP-13 was obtained as a proenzyme from a full-length cDNA clone using baculovirus, as described by V. A. Luckow, “Insect Cell Expression Technology,” Protein Engineering: Principles and Practice, pp. 183-218 (edited by J. L. Cleland et al., Wiley-Liss, Inc., 1996). The expressed proenzyme was first purified over a heparin agarose column, and then over a chelating zinc chloride column. The proenzyme was then activated by APMA for use in the assay. […] See also, O'Reilly et al, Baculovirus Expression Vectors: A Laboratory Manual (W. H. Freeman and Co., New York, N.Y., 1992). See also, King et al., The Baculovirus Expression System: A Laboratory Guide (Chapman & Hall, London, England, 1992).
as §3, §4, §5, §6, §7
as §8, with “Modifications were made in the non-linear regression method to allow a common control reaction rate and effective enzyme concentration to be shared between all dose-response relationships on a given assay plate.” left out
All Ki values in Table 3 are given in nM units.

[3] = biological target: T3, Human recombinant MMP-14 (Homo sapiens, UniProt P50281); assay: In vitro MMP inhibition analysis (fluorogenic peptide substrate), MMP-14; conditions: human recombinant catalytic domain; 4 μM substrate (A); apparent Ki without substrate correction
T3 construct: The catalytic domain enzyme was expressed in E. Coli inclusion bodies; made in house
Description: as §1, §2
The MMP-14 full length cDNA was provided by Dr. Gregory Goldberg of Washington University (St. Louis, Mo.). The catalytic domain enzyme was expressed in E. Coli inclusion bodies, solubilized in urea, purified on a preparative […] reverse phase HPLC column, and then refolded in the presence of zinc acetate and purified for use.
as §3, §4, §5, §6, §7, §8, §9

T1 sequence (P14780 107-707 limits assumed): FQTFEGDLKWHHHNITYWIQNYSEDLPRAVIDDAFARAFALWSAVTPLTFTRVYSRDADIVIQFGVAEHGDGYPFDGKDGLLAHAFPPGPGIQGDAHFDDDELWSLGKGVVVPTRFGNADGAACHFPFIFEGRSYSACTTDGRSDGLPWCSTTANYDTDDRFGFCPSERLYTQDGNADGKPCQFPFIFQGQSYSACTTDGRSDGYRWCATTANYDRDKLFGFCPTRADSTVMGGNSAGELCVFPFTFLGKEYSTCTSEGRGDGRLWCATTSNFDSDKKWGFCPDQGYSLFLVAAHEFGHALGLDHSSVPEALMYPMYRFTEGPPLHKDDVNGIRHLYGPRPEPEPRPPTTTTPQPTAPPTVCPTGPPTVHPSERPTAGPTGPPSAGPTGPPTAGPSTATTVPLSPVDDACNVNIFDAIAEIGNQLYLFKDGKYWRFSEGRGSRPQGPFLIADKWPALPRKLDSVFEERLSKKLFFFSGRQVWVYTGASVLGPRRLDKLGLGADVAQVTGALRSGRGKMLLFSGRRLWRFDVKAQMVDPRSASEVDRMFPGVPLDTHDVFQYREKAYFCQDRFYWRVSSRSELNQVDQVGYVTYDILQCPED

| SMILES | Ki [1] | Ki [2] | Ki [3] |
| --- | --- | --- | --- |
| CN(C(=O)c1ccc(-c2ccc(S(=O)(=O)C3(C(=O)NO)CCOCC3)cn2)cc1)c1ccccc1 [Example 78] | 1290 nM | 447 nM | > 10000 nM |
| CCN(CC)C(=O)c1ccc(-c2ccc(S(=O)(=O)C3(C(=O)NO)CCOCC3)cn2)cc1 [Example 79] | > 10000 nM | 607 nM | > 10000 nM |
| CN(C(=O)c1ccc(-c2ccc(S(=O)(=O)C3(C(=O)NO)CCOCC3)cn2)cc1)c1ccc(OC(F)(F)F)cc1 [Example 81] | 3400 nM | 264 nM | > 10000 nM |
| CC(C)CN(C)C(=O)c1ccc(-c2ccc(S(=O)(=O)C3(C(=O)NO)CCOCC3)cn2)cc1 [Example 82] | 894 nM | 229 nM | > 10000 nM |
| O=C(NO)C1(S(=O)(=O)c2ccc3c(c2)sc2nc(-c4ccccc4)cn23)CCOCC1 [Example 83] | 2040 nM | 577 nM | 3150 nM |

These reach a lower Ki [1]. Values come first.

| Ki [1] | Ki [2] | Ki [3] | SMILES |
| --- | --- | --- | --- |
| 0.159 nM | 140 nM | > 10000 nM | CN(C(=O)Cc1ccc(-c2ccc(S(=O)(=O)C3(C(=O)NO)CCOCC3)cn2)cc1)c1ccc(OC(F)(F)F)cc1 [Example 75] |
| 428 nM | 5.59 nM | > 10000 nM | CCCCNC(=O)c1ccc(-c2ccc(S(=O)(=O)C3(C(=O)NO)CCOCC3)cn2)cc1 [Example 76] |
| 4.26 nM | 0.79 nM | 671 nM | O=C(NO)C1(S(=O)(=O)c2ccc(-c3ccc(OC(F)(F)F)cc3)nc2)CCOCC1 [Example 84] |

From patent US20040142979A1, “Heteroarylsulfonylmethyl hydroxamic acids and amides and their use as protease inhibitors” (priority 2002, published 2004)
